For 8 molecules, IC50 results are on record in patent US12398154B2, “Azaquinazoline pan-KRas inhibitors” (Mirati Therapeutics, Inc., priority 2020, dated 2025).

One may read the IC50 as the concentration that inhibits the measured activity by half.

The test system of one assay is pERK in A549 cells. Nature of the assay: Inhibition of KRas phosphorylation of ERK (Cisbio HTRF pERK assay). The conditions noted are these: Homo sapiens, A549, read-out: Inhibition (HTRF IC50) of KRas-mediated Phosphorylation of ERK, A549. On the technique in general: TR-FRET usually uses a lanthanide donor and a delayed reading to cut background.
The subject of assay [1] is phospho-ERK in NCI-H460 (Q61H) cells. Nature of the assay: Inhibition of KRas-mediated phosphorylation of ERK (in-cell western). The class given is cell-based. The conditions noted are these: Homo sapiens, NCI-H460, 3 h, 3 hours compound, phospho-ERK normalized to GAPDH. In outline: (§1)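 Cells treated 3 h with compounds (0.5% DMSO), fixed in formaldehyde and methanol-permeabilized. In-cell western for phospho-ERK (Thr202/Tyr204) normalized to GAPDH, as % of DMSO control; IC50 by 4-parameter fit.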

Assay [2] deals with phospho-ERK in NCI-H727 (G12V) cells. Described as above. The class given is cell-based. The conditions noted are these: Homo sapiens, NCI-H727, 3 h, 3 hours compound, phospho-ERK normalized to GAPDH. In outline: as §1
The test system of assay [3] is phospho-ERK in NCI-H358 (G12C) cells. The description is as above. The class given is cell-based. The conditions noted are these: Homo sapiens, 3 hours compound, phospho-ERK normalized to GAPDH. Put shortly:
as §1

Assay [4] has as its system phospho-ERK in PSN-1 (G12R) cells. The description is as above. It counts as cell-based. The following applies: Homo sapiens, PSN1, 3 hours compound, phospho-ERK normalized to GAPDH. Put shortly: as §1
Assay [5] has as its system phospho-ERK in AsPC-1 (G12D) cells. Described as above. The following applies: Homo sapiens, ASPC1, 3 h, 3 hours compound, phospho-ERK normalized to GAPDH. It counts as cell-based. In outline:
as §1

Assay [6] deals with phospho-ERK in MKN1 (WTdep) cells. Described as above. It counts as cell-based. The following applies: Homo sapiens, MKN-1, 3 hours compound, phospho-ERK normalized to GAPDH. Put shortly: as §1
The test system of assay [7] is phospho-ERK in A549 (G12S) cells. The description is as above. It counts as cell-based. The following applies: Homo sapiens, 3 hours compound, phospho-ERK normalized to GAPDH. In outline:
as §1

The test system of assay [8] is phospho-ERK in HCT116 (G13D) cells. The assay is described as above. It counts as cell-based. The conditions noted are these: Homo sapiens, HCT-116, 3 hours compound, phospho-ERK normalized to GAPDH. Put shortly:
as §1

A further assay deals with pERK in HCT116 cells. Nature of the assay: Inhibition of KRas phosphorylation of ERK (Cisbio HTRF pERK assay). The following applies: Homo sapiens, HCT-116, read-out: Inhibition (HTRF IC50) of KRas-mediated Phosphorylation of ERK, HCT116.
A further assay has as its system pERK in H460 cells. The description is as above. The conditions noted are these: Homo sapiens, NCI-H460, read-out: Inhibition (HTRF IC50) of KRas-mediated Phosphorylation of ERK, H460.
The subject of a further assay is pERK in ASPC1 cells. Described as above. The following applies: Homo sapiens, ASPC1, read-out: Inhibition (HTRF IC50) of KRas-mediated Phosphorylation of ERK, AsPC-1.
For the next assay, the system named is pERK in H727 cells. Described as above. The following applies: Homo sapiens, NCI-H727, read-out: Inhibition (HTRF IC50) of KRas-mediated Phosphorylation of ERK, H727.
A further assay deals with KRas G12R (Homo sapiens, UniProt P01116, G12R). Nature of the assay: biochemical.
The target in the next assay is KRas G12D (Homo sapiens, UniProt P01116, G12D). Nature of the assay: biochemical.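 Further: TR-FRET displacement binding assay on KRas, read after a one-hour incubation at room temperature, IC50 fitted from percent-of-control values.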
Another assay has as its target KRas G12V (Homo sapiens, UniProt P01116, G12V). Nature of the assay: biochemical.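 Further: KRas binding measured by TR-FRET displacement at room temperature, IC50 fitted from percent of control values.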

Each structure is given as a SMILES string. Some results are limits rather than exact numbers.

KRas G12R, sequence (P01116 1-169 isoform P01116-2 G12R): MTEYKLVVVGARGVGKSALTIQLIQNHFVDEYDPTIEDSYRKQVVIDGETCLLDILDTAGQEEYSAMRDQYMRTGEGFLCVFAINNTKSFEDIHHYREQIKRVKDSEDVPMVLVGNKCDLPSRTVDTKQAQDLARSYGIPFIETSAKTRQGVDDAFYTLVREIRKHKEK
KRas G12D, sequence (P01116 1-169 isoform P01116-2 G12D): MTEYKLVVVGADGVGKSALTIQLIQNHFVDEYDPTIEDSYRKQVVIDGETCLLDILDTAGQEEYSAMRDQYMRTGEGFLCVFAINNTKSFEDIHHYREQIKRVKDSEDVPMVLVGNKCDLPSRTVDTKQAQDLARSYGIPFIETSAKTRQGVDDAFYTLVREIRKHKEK
KRas G12V, sequence (P01116 1-169 isoform P01116-2 G12V): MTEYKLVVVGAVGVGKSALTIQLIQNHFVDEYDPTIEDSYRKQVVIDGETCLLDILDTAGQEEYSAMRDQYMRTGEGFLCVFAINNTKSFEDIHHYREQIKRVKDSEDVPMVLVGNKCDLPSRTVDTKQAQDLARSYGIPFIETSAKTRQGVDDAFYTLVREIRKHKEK

`CCc1c(F)ccc2cc(O)cc(-c3ncc4c(N5CCOCC(C)(O)C5)nc(OC[C@@]56CCCN5C[C@H](F)C6)nc4c3F)c12` (some centres unmarked) [Example 63]: the IC50 came out at 19 nM in the assay with pERK in A549 cells; 38 nM in [1]; 56 nM in assay [2]; 27 nM in assay [3]; 1040 nM in assay [4]; 15 nM in assay [5]. For the same molecule, the IC50 in assay [6] came to 5 nM; in assay [7], 139 nM; in assay [8], 44 nM; with pERK in HCT116 cells, 63 nM; in the assay with pERK in H460 cells, 21 nM; with pERK in ASPC1 cells it was 4 nM. Also, the IC50 in the assay with pERK in H727 cells was 28 nM.
For `CCc1c(F)ccc2cc(O)cc(-c3ncc4c(N5CCOCC(CO)C5)nc(OC[C@@]56CCCN5C[C@H](F)C6)nc4c3F)c12` (stereo partly drawn) [Example 74, 5-ethyl-6-fluoro-4-(8-fluoro-2-(((2R,7aS)-2-fluorotetrahydro-1H-pyrrolizin-7a(5H)-yl)methoxy)-4-(6-(hydroxymethyl)-1,4-oxazepan-4-yl)pyrido[4,3-d]pyrimidin-7-yl)naphthalen-2-ol], the IC50 is 55 nM in assay [1]; 355 nM in [2]; 10 nM in assay [3]; ≥ 10000 nM in assay [4]; 72 nM in [5]; 8 nM in [6]. For the same molecule, the IC50 in [7] worked out at 63 nM; in assay [8], 662 nM; with pERK in HCT116 cells it was 336 nM; at KRas G12R, 3 nM; in the assay with pERK in H460 cells, 151 nM; in the assay with pERK in ASPC1 cells, 65 nM. Further, the IC50 against KRas G12D was ≤ 2 nM; with pERK in H727 cells, 84 nM; against KRas G12V, ≤ 2 nM.
As to `CCc1c(F)ccc2cc(O)cc(-c3ncc4c(NCc5cccnc5N)nc(OC[C@@]56CCCN5C[C@H](F)C6)nc4c3F)c12` [Example 136, 4-(4-(((2-aminopyridin-3-yl)methyl)amino)-8-fluoro-2-(((2R,7aS)-2-fluorohexahydro-1H-pyrrolizin-7a-yl)methoxy)pyrido[4,3-d]pyrimidin-7-yl)-5-ethyl-6-fluoronaphthalen-2-ol], the IC50 in assay [1] is 75 nM; in assay [2], 181 nM; in [3], 4 nM; in assay [4], ≥ 10000 nM; in [5], 351 nM; in [6], 7 nM. Besides, the IC50 in [7] is 19 nM; in [8], 631 nM; in the assay on pERK in HCT116 cells, 243 nM; against KRas G12R, ≤ 2 nM; in the assay with pERK in H460 cells it was 83 nM; in the assay on pERK in ASPC1 cells, 318 nM. Also, the IC50 on KRas G12D was 3 nM; in the assay on pERK in H727 cells, 52 nM; at KRas G12V, ≤ 2 nM.
For `CCc1c(F)ccc2cc(O)cc(-c3ncc4c(N5CCCC6(CNC6=O)C5)nc(OC[C@@]56CCCN5C[C@H](F)C6)nc4c3F)c12` (some centres unmarked) [Example 146], the IC50 in assay [1] was 204 nM; in assay [2] it was ≥ 10000 nM; in [3] it was 15 nM; in assay [4], 2530 nM; in assay [5], 22 nM; in [6], 22 nM. In addition, the IC50 in assay [7] is 1060 nM; in assay [8], 1000 nM; with pERK in HCT116 cells it was 607 nM; against KRas G12R, 3 nM; with pERK in H460 cells, 327 nM; with pERK in ASPC1 cells, 92 nM. The IC50 was ≤ 2 nM against KRas G12D, 400 nM with pERK in H727 cells and ≤ 2 nM against KRas G12V.
For `C#Cc1c(F)ccc2cc(O)cc(-c3ncc4c(N5CCCC6(CC(=O)N6)C5)nc(OC[C@@]56CCCN5C[C@H](F)C6)nc4c3F)c12` (some centres unmarked) [Example 148], the IC50 in [1] turned out to be 68 nM; in assay [2], 260 nM; in [3] it was 15 nM; in [4], 3780 nM; in assay [5], 105 nM; in assay [6], 76 nM. In addition, the IC50 is 550 nM in assay [7]; ≥ 10000 nM in [8]; 2210 nM in the assay on pERK in HCT116 cells; ≤ 2 nM at KRas G12R; 132 nM in the assay on pERK in H460 cells; 59 nM in the assay on pERK in ASPC1 cells. The IC50 was 3 nM against KRas G12D, 110 nM in the assay on pERK in H727 cells and ≤ 2 nM against KRas G12V.
With `C#Cc1c(F)ccc2cc(O)cc(-c3ncc4c(N5CCOCC(C)(O)C5)nc(OC[C@@]56CCCN5C[C@H](F)C6)nc4c3F)c12` (some centres unmarked) [Example 149], the IC50 in the assay with pERK in A549 cells came out at 290 nM; in assay [1], 71 nM; in assay [2] it was 206 nM; in assay [3], 10 nM; in assay [4], 1760 nM; in assay [5], 9 nM. The IC50 in assay [6] was 16 nM; in [7], 83 nM; in [8], 292 nM; in the assay on pERK in HCT116 cells it was 276 nM; at KRas G12R, 3 nM; with pERK in H460 cells it was 180 nM. For the same molecule, the IC50 with pERK in ASPC1 cells was 25 nM; against KRas G12D it was 4 nM; with pERK in H727 cells it was 111 nM; on KRas G12V it was ≤ 2 nM.
In the case of `C#Cc1c(F)ccc2cc(O)cc(-c3ncc4c(NCc5c[nH]c6ncccc56)nc(OC[C@@]56CCCN5C[C@H](F)C6)nc4c3F)c12` [Example 150, 4-(4-(((1H-pyrrolo[2,3-b]pyridin-3-yl)methyl)amino)-8-fluoro-2-(((2R,7aS)-2-fluorohexahydro-1H-pyrrolizin-7a-yl)methoxy)pyrido[4,3-d]pyrimidin-7-yl)-5-ethynyl-6-fluoronaphthalen-2-ol], the IC50 in assay [1] was 362 nM; in assay [2], 626 nM; in assay [3] it was 4 nM; in assay [4], ≥ 10000 nM; in [5], 435 nM; in assay [6], 13 nM. Moreover, the half-maximal inhibitory concentration (IC50) in [7] was 45 nM; in [8], 996 nM; with pERK in HCT116 cells, 115 nM; against KRas G12R, ≤ 2 nM; in the assay on pERK in H460 cells, 167 nM; in the assay with pERK in ASPC1 cells, 66 nM. The values for the IC50 against KRas G12D, with pERK in H727 cells and against KRas G12V were ≤ 2 nM, 12 nM and ≤ 2 nM, respectively.
As for `CCc1c(F)ccc2cc(O)cc(-c3ncc4c(NCc5ccc6nccn6c5)nc(OC[C@@]56CCCN5C[C@H](F)C6)nc4c3F)c12` [Example 156, 5-ethyl-6-fluoro-4-(8-fluoro-2-(((2R,7aS)-2-fluorohexahydro-1H-pyrrolizin-7a-yl)methoxy)-4-((imidazo[1,2-a]pyridin-6-ylmethyl)amino)pyrido[4,3-d]pyrimidin-7-yl)naphthalen-2-ol], the IC50 is 141 nM in [1]; 189 nM in assay [2]; 10 nM in assay [3]; ≥ 10000 nM in assay [4]; 335 nM in [5]; 14 nM in assay [6]. The IC50 in assay [7] was 33 nM; in assay [8], 323 nM; with pERK in HCT116 cells, 349 nM; against KRas G12R, ≤ 2 nM; in the assay on pERK in H460 cells, 143 nM; in the assay with pERK in ASPC1 cells, 125 nM. Further, the IC50 at KRas G12D is ≤ 2 nM; in the assay on pERK in H727 cells, 72 nM; against KRas G12V, ≤ 2 nM.
